pIC50: −log10 of the molar value.
Experiments:
[1] = target: T1, Human plasma kallikrein (Homo sapiens, UniProt P03952); test: Plasma Kallikrein Assay; type: biochemical; details: purified Human plasma kallikrein 0.5 nM, substrate Acetyl-K-P-R-AFC, pH 7.4
T1 construct: yields a heavy chain (371 amino acids) and a light chain (248 amino acids); purchased Enzyme Research Laboratories

[2] = target: human factor XIa (Homo sapiens, UniProt P03951); test: Factor XIa Assay; type: biochemical; details: human factor XIa 0.04 nM, substrate GPR-AFC, 30 min pre-incubation at 25° C., pH 7.4; read-out: FXIa IC50
Chain of human factor XIa (P03951 388-625 limits assumed): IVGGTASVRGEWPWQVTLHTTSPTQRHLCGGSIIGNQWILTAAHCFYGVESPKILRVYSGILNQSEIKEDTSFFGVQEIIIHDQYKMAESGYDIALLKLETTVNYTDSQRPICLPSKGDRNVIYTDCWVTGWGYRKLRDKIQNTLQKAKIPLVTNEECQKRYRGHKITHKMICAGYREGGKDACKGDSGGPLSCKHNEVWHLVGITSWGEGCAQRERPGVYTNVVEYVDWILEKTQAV
Chain of human factor XIa (P03951 19-387 partner limits assumed): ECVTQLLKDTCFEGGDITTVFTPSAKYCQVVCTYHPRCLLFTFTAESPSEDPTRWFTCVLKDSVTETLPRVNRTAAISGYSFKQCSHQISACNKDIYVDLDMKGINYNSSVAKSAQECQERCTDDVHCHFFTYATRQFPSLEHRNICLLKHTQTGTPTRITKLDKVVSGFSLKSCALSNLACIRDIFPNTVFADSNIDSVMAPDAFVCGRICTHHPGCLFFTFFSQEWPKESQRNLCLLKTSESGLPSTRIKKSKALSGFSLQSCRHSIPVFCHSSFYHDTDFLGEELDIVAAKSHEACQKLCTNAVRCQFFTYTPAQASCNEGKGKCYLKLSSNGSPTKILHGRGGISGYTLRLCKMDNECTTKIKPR

T1 sequence (P03952 391-638 limits assumed): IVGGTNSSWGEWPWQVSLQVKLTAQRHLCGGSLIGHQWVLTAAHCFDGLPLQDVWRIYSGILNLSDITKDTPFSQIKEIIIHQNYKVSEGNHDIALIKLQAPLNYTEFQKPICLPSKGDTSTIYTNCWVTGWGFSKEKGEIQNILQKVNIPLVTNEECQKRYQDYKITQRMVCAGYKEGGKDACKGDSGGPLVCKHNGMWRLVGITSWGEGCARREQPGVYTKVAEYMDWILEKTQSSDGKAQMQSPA
T1 sequence (P03952 20-390 partner limits assumed): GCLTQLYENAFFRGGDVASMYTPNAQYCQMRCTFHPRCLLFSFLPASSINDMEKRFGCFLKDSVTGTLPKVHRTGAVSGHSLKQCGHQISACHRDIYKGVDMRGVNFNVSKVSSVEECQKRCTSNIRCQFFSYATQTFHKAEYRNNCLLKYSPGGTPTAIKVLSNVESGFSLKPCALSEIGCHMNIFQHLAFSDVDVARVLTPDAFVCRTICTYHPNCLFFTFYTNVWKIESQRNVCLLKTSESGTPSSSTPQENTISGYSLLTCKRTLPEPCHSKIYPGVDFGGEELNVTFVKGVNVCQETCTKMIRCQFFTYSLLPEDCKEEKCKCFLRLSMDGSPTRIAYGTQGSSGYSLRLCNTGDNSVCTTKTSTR

Row | SMILES | pIC50 [1] | pIC50 [2]
1 | Cc1ncc(-c2c(C(F)F)ccc(Cl)c2F)nc1C(=O)Nc1cnn(Cc2cnc(N3CC(F)(F)C3)c(C)n2)c1 [Example 11, 6-(3-Chloro-6-(difluoromethyl)-2-fluorophenyl)-N-(1-((5-(3,3-difluoroazetidin-1-yl)-6-methylpyrazin-2-yl)methyl)-1H-pyrazol-4-yl)-3-methylpyrazine-2-carboxamide] | 8.21 | 5.77
2 | CC1(O)CN(C[C@@H]2[C@@H]3C[C@@H]3CN2c2ncc(Cn3cc(NC(=O)c4cncc(-c5c(C(F)F)ccc(Cl)c5F)n4)cn3)cn2)C1 [Example 145, 6-(3-Chloro-6-(difluoromethyl)-2-fluorophenyl)-N-(1-((2-((1R,2S,5S)-2-((3-hydroxy-3-methylazetidin-1-yl)methyl)-3-azabicyclo[3.1.0]hexan-3-yl)pyrimidin-5-yl)methyl)-1H-pyrazol-4-yl)pyrazine-2-carboxamide] | 9.30 | 6.44
3 | C[C@@H](c1cnc(N2C[C@@H]3C[C@@H]3[C@@H]2CO)nc1)n1cc(NC(=O)c2cncc(-c3c(C(F)F)ccc(Cl)c3F)n2)cn1 (single isomer, unassigned) [Example 74, 6-(3-Chloro-6-(difluoromethyl)-2-fluorophenyl)-N-(1-((S or R)-1-(2-((1S,2R,5R or 1R,2S,5S)-2-(hydroxymethyl)-3-azabicyclo[3.1.0]hexan-3-yl)pyrimidin-5-yl)ethyl)-1H-pyrazol-4-yl)pyrazine-2-carboxamide] | 8.37 | 5.99
4 | CC(c1cnc(N2CC(F)(F)C2)nc1)n1cc(NC(=O)c2cncc(-c3c(C(F)F)ccc(Cl)c3F)n2)cn1 (centres unmarked) [Example 82, 6-(3-Chloro-6-(difluoromethyl)-2-fluorophenyl)-N-(1-(1-(2-(3,3-difluoroazetidin-1-yl)pyrimidin-5-yl)ethyl)-1H-pyrazol-4-yl)pyrazine-2-carboxamide] | 8.03 | 5.22
5 | NC(=O)c1ncc(-c2c(C(F)F)ccc(Cl)c2F)nc1C(=O)Nc1cnn(Cc2cnc(N3CCC3)nc2)c1 [Example 138, N^2-(1-((2-(Azetidin-1-yl)pyrimidin-5-yl)methyl)-1H-pyrazol-4-yl)-6-(3-chloro-6-(difluoromethyl)-2-fluorophenyl)pyrazine-2,3-dicarboxamide] | 7.84 | 5.63
6 | [2H]C(C)(c1cnc(N2CCC2)nc1)n1cc(NC(=O)c2cncc(-c3c(C(F)F)ccc(Cl)c3F)n2)cn1 (single isomer, unassigned) [Example 43, (R or S)-N-(1-(1-(2-(azetidin-1-yl)pyrimidin-5-yl)ethyl-1-d)-1H-pyrazol-4-yl)-6-(3-chloro-6-(difluoromethyl)-2-fluorophenyl)pyrazine-2-carboxamide] | 7.71 | 5.93
7 | CC(c1cnc(N2CCC2)nc1)n1cc(NC(=O)c2cncc(-c3c(OC(F)F)ccc(Cl)c3F)n2)cn1 (single isomer, unassigned) [Example 57, (S or R)-N-(1-(1-(2-(Azetidin-1-yl)pyrimidin-5-yl)ethyl)-1H-pyrazol-4-yl)-6-(3-chloro-6-(difluoromethoxy)-2-fluorophenyl)pyrazine-2-carboxamide] | 8.17 | 5.93
8 | C[C@@H](c1cnc(N2CC(F)C2)nc1)n1cc(NC(=O)c2cncc(-c3c(C(F)F)ccc(Cl)c3F)n2)cn1 [Example 92, (S)-6-(3-Chloro-6-(difluoromethyl)-2-fluorophenyl)-N-(1-(1-(2-(3-fluoroazetidin-1-yl)pyrimidin-5-yl)ethyl)-1H-pyrazol-4-yl)pyrazine-2-carboxamide] | 7.73 | 5.30
9 | O=C(Nc1cnn(C(CO)c2cnc(N3CC4CC4C3)nc2)c1)c1cncc(-c2c(C(F)F)ccc(Cl)c2F)n1 (single isomer, unassigned) [Example 44, N-(1-((S or R)-1-(2-(3-Azabicyclo[3.1.0]hexan-3-yl)pyrimidin-5-yl)-2-hydroxyethyl)-1H-pyrazol-4-yl)-6-(3-chloro-6-(difluoromethyl)-2-fluorophenyl)pyrazine-2-carboxamide] | 7.99 | 5.84

The next lines start with the values.

Row | pIC50 [1] | pIC50 [2] | SMILES
10 | 9.40 | 5.63 | CC1(O)CCN(C[C@@H]2CCCN2c2ncc(Cn3cc(NC(=O)c4cncc(-c5c(C(F)F)ccc(Cl)c5F)n4)cn3)cn2)C1 (stereo partly drawn) [Example 144, 6-(3-Chloro-6-(difluoromethyl)-2-fluorophenyl)-N-(1-((2-((2S)-2-((3-hydroxy-3-methylpyrrolidin-1-yl)methyl)pyrrolidin-1-yl)pyrimidin-5-yl)methyl)-1H-pyrazol-4-yl)pyrazine-2-carboxamide]
11 | 9.22 | 5.14 | C[C@H]1[C@@H](O)CCN1C[C@@H]1CCCN1c1ncc(Cn2cc(NC(=O)c3cncc(-c4c(C(F)F)ccc(Cl)c4F)n3)cn2)cn1 [Example 146, 6-(3-Chloro-6-(difluoromethyl)-2-fluorophenyl)-N-(1-((2-((S)-2-(((2S,3S)-3-hydroxy-2-methylpyrrolidin-1-yl)methyl)pyrrolidin-1-yl)pyrimidin-5-yl)methyl)-1H-pyrazol-4-yl)pyrazine-2-carboxamide]
12 | 9.40 | 5.66 | O=C(Nc1cnn(Cc2cnc(N3CCC[C@H]3CN3CC[C@@H](O)C3)nc2)c1)c1cncc(-c2c(C(F)F)ccc(Cl)c2F)n1 [Example 142, 6-(3-Chloro-6-(difluoromethyl)-2-fluorophenyl)-N-(1-((2-((S)-2-(((R)-3-hydroxypyrrolidin-1-yl)methyl)pyrrolidin-1-yl)pyrimidin-5-yl)methyl)-1H-pyrazol-4-yl)pyrazine-2-carboxamide]
13 | 7.33 | 5.52 | O=C(Nc1cnn(Cc2cnc(N3CC[C@@H]3CO)nc2)c1)c1cncc(-c2c(C(F)F)ccc(Cl)c2F)n1 [Example 111, (R)-6-(3-Chloro-6-(difluoromethyl)-2-fluorophenyl)-N-(1-((2-(2-(hydroxymethyl)azetidin-1-yl)pyrimidin-5-yl)methyl)-1H-pyrazol-4-yl)pyrazine-2-carboxamide]
14 | 7.87 | 5.07 | C[C@@H](O)[C@H]1[C@H]2C[C@H]2CN1c1ncc(Cn2cc(NC(=O)c3cncc(-c4c(C(F)F)ccc(Cl)c4F)n3)cn2)cn1 [Example 87, 6-(3-Chloro-6-(difluoromethyl)-2-fluorophenyl)-N-(1-((2-((1S,2R,5R)-2-((R)-1-hydroxyethyl)-3-azabicyclo[3.1.0]hexan-3-yl)pyrimidin-5-yl)methyl)-1H-pyrazol-4-yl)pyrazine-2-carboxamide]
15 | 9.52 | 6.30 | CC(C)(O)CNC[C@@H]1[C@@H]2C[C@@H]2CN1c1ncc(Cn2cc(NC(=O)c3cncc(-c4c(C(F)F)ccc(Cl)c4F)n3)cn2)cn1 [Example 139, 6-(3-Chloro-6-(difluoromethyl)-2-fluorophenyl)-N-(1-((2-((1R,2S,5S)-2-(((2-hydroxy-2-methylpropyl)amino)methyl)-3-azabicyclo[3.1.0]hexan-3-yl)pyrimidin-5-yl)methyl)-1H-pyrazol-4-yl)pyrazine-2-carboxamide]
16 | 8.92 | 5.38 | C[C@@H](O)CNCC1CCCN1c1ncc(Cn2cc(NC(=O)c3cncc(-c4c(C(F)F)ccc(Cl)c4F)n3)cn2)cn1 (stereo partly drawn) [Example 154, 6-(3-Chloro-6-(difluoromethyl)-2-fluorophenyl)-N-(1-((2-(2-((((R)-2-hydroxypropyl)amino)methyl)pyrrolidin-1-yl)pyrimidin-5-yl)methyl)-1H-pyrazol-4-yl)pyrazine-2-carboxamide]

Reference: patent publication US20230416227A1, “PLASMA KALLIKREIN INHIBITORS” (Merck Sharp & Dohme LLC, priority 2020, published 2023)
